Results reported in PMC6696243, “Synthesis and In Vitro Evaluation of 8-Pyridinyl-Substituted Benzo[e]imidazo[2,1-c][1,2,4]triazines as Phosphodiesterase 2A Inhibitors” (Molecules, 2019).
Where “and” joins values, the source holds several entries; their conditions need not be identical. Identical values can stand only once. Entries after “also recorded” stand apart in the source; their conditions may differ.

Tests used:
[1] = target: T1, PDE9A1 (Homo sapiens, UniProt O76083); experiment: PDE9A1 radiometric enzyme inhibition assay; assay type: biochemical; settings: compound at 1 µM; read-out: Inhibition of PDE Sub-Types (%) 9A1
T1 construct: purchased SB Drug Discovery (Scotland, U.K.); host or cells: baculoviral system
T1 sequence (O76083 whole entry): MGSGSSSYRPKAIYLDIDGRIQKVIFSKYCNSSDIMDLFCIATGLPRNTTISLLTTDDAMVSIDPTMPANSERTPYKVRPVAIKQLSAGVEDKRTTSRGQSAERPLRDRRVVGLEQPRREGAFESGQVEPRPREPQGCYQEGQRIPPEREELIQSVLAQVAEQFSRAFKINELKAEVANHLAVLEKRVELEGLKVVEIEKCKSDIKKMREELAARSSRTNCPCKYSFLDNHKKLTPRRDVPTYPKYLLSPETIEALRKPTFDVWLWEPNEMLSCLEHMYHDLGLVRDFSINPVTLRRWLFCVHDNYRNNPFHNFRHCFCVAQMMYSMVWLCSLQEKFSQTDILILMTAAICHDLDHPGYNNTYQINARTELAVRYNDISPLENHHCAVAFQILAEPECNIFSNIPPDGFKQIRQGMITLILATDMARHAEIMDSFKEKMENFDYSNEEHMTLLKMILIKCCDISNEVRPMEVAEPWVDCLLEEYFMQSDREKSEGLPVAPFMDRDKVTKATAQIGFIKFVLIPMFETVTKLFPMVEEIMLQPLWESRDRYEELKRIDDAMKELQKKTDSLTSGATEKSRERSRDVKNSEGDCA

[2] = target: T2, PDE4A1 (Homo sapiens, UniProt P27815); experiment: PDE4A1 radiometric enzyme inhibition assay; assay type: biochemical; settings: compound at 1 µM; read-out: Inhibition of PDE Sub-Types (%) 4A1
T2 construct: purchased SB Drug Discovery (Scotland, U.K.); host or cells: baculoviral system
T2 sequence (P27815 1-647 isoform P27815-4): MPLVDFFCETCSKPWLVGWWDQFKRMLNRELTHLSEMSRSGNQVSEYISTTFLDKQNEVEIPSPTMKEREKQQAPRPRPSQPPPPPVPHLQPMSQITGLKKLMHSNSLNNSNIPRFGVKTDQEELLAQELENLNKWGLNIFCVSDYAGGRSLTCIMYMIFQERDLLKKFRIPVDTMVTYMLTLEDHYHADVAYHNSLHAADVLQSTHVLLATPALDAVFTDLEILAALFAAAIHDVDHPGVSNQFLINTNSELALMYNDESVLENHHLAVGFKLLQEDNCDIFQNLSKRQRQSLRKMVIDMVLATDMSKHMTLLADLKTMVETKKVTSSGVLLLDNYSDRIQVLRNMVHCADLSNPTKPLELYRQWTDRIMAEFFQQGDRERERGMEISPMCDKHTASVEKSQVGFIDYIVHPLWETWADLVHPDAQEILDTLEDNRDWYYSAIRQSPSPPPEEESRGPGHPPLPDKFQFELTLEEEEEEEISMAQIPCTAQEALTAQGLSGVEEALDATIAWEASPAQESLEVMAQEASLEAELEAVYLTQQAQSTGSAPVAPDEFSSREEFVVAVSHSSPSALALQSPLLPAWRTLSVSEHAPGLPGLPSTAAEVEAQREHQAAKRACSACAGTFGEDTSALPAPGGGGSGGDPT

[3] = target: T3, PDE5A1 (Homo sapiens, UniProt O76074); experiment: PDE5A1 radiometric enzyme inhibition assay; assay type: biochemical; settings: compound at 1 µM; read-out: Inhibition of PDE Sub-Types (%) 5A1
T3 construct: purchased SB Drug Discovery (Scotland, U.K.); host or cells: baculoviral system

[4] = system: PDE10A; design: method as in PMID 27213312, PMID 26016549, PMID 29498659; settings: Figure 1; cited from earlier work
[5] = system: PDE2A; settings: cited from earlier work; for IC50: Figure 1
[6] = target: T4, PDE10A1 (Homo sapiens, UniProt Q9Y233); experiment: PDE10A1 radiometric enzyme inhibition assay; settings: for Inhibition of PDE Sub-Types (%) 10A1: compound at 1 µM
T4 sequence (Q9Y233 1-779 isoform Q9Y233-1): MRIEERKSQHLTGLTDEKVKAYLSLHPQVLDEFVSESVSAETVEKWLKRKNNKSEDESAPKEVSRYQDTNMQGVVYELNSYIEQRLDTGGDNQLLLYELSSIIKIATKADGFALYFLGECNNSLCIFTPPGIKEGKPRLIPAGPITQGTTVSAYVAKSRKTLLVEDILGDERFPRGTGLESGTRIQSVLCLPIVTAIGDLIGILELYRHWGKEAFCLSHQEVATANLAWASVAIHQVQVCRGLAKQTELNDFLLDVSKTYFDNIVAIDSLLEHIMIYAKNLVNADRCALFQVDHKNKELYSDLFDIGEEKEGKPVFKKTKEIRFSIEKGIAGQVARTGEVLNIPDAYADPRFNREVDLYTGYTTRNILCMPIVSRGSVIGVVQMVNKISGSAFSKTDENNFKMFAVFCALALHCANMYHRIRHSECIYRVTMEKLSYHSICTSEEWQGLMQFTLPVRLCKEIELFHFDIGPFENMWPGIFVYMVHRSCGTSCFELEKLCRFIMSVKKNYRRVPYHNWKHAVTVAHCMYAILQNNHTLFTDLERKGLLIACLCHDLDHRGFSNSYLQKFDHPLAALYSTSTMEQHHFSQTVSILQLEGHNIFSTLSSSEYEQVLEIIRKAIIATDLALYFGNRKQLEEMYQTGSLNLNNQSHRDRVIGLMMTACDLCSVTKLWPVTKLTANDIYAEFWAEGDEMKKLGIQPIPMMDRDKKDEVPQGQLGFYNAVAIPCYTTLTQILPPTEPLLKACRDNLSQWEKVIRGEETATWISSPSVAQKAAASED
Experimental: (§1) The phosphodiesterase assays were performed using recombinant human PDE enzymes expressed in a baculoviral system. […] The radiometric assay was a modification of the two-step method of Thompson and Appleman [45], which was adapted for 96-well plate format.
(§2) Firstly, tritium-labeled cyclic AMP or cyclic GMP was hydrolyzed to 5′-AMP or 5′-GMP by phosphodiesterase. The 5′-AMP or 5′-GMP was then further hydrolyzed to adenosine or guanosine by nucleotidase in snake venom. An anion-exchange resin bound all charged nucleotides and left [^3H]adenosine or [^3H]guanosine as the only labeled compound to be counted by liquid scintillation. Briefly, 50 µL of diluted human PDE enzyme were incubated with 50 µL of [^3H]-cAMP or [^3H]-cGMP and 11 µL of 50% DMSO (or compound dilution) for 20 min (at 30 °C). Reactions were carried out in a Greiner 96-deep well 1-mL master-block. The enzyme was diluted in 20 mM Tris HCl pH 7.4 and [^3H]-cAMP or [^3H]-cGMP are diluted in 10 mM MgCl2, 40 mM Tris HCl pH 7.4. The reaction is terminated by denaturing the PDE enzyme (at 70 °C for 2 min), after which 25 µL of snake venom nucleotidase were added and incubated for 10 min (at 30 °C). Plates were centrifuged for 9 seconds before incubation. After incubation, 200 µL of Dowex resin were added, and the plate was shaken for 20 min then centrifuged for 3 min at 2500 r.p.m. Fifty microliters of supernatant were removed and added to 200 µL of MicroScint-20 in white plates (Greiner 96-well Optiplate) and shaken for 30 min before reading on a Perkin Elmer TopCount Scintillation Counter.
(§3) Compounds were tested at a concentration of 10 nM against human PDE2A3 and at 1 µM for PDE4A1, PDE5A, PDE6AB, PDE9A1, and PDE10A1. The percentage of inhibition of the compounds and standard inhibitors was determined and compared to historical assay data to ensure that they fell within acceptable ranges.

[7] = target: T5, human PDE2A3 (Homo sapiens, UniProt O00408); experiment: PDE2A3 radiometric enzyme inhibition assay; settings: for Inhibition of PDE Sub-Types (%) 2A3: compound at 10 nM; for Selectivity Ratio (PDE10A/PDE2A): ratio of IC50 PDE10A to IC50 PDE2A, fold
T5 sequence (O00408 whole entry): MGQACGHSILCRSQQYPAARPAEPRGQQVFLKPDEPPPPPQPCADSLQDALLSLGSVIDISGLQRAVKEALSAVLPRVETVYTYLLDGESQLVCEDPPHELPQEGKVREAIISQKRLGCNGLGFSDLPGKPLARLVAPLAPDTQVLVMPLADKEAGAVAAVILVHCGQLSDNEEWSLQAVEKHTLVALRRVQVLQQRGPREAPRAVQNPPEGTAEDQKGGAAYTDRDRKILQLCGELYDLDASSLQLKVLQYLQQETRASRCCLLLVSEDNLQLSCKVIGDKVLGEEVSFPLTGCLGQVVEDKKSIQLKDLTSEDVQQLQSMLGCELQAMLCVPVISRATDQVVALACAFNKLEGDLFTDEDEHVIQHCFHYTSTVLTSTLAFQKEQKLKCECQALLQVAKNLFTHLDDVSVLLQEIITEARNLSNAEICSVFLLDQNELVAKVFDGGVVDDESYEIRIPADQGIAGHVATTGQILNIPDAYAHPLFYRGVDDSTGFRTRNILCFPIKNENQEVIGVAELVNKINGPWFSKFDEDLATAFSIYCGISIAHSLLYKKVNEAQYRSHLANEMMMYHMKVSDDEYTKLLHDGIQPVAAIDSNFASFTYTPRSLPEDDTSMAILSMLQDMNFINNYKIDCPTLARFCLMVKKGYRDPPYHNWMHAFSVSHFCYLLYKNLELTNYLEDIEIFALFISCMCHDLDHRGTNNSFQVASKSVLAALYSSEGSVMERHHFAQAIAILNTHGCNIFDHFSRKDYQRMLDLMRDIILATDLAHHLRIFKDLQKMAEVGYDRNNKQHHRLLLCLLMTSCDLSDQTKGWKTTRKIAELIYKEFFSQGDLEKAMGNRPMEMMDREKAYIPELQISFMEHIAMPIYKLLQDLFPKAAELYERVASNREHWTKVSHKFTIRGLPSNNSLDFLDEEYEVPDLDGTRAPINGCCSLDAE
Experimental: as §1, §2, §3

[8] = Incubation with mouse liver microsomes, HPLC-UV-MS
Experimental: After protein precipitation by addition of acetonitrile and subsequent centrifugation, the supernatant was examined by HPLC-UV-MS.
Analogously, preincubated NADPH (2 mM) was added, and the mixtures were gently shaken at 37 °C. After 90 min, portions of 1.0 mL of cold acetonitrile (−20 °C) were added, respectively, followed by vigorous shaking (30 s), cooling on ice (4 min), and centrifugation at 14,000 rpm (10 min). Supernatants were concentrated at 50 °C under a flow of nitrogen to provide residual volumes of 40–60 µL, which were reconditioned by adding acetonitrile/water 1:1 (v/v) to obtain samples of 100 µL, which were stored at 4 °C until analyzed by HPLC-UV-MS.
HPLC-UV-MS analyses were performed on a ReproSil-Pur 120 C18-AQ-column, 125 mm × 3 mm, 3 µm (Dr. Maisch GmbH, Ammerbuch, Germany) equipped with an appropriate precolumn at 25 °C and a flow rate of 0.7 mL/min. The solvent system consisted of Eluent A: water, containing 2 mM ammonium acetate, and Eluent B: water/acetonitrile 20/80 (v/v), containing 2 mM ammonium acetate. Two methods were applied. Method A (gradient elution, % acetonitrile): 0–1.5 min, 10%; 1.5–10 min, 10–80%; 10-13 min, 80%; 13–16 min 10%. Method B (isocratic elution, % acetonitrile): 0–25 min, 42%. […] MSQ Plus single quadrupole mass spectrometer was operated in positive electrospray ionization mode: probe temperature 500 °C, needle voltage 5 V, cone voltage 75 V.

[9] = target: T5, human PDE2A3; experiment: biochemical
Experimental: as §1, §2, §3

[10] = target: T4, PDE10A1; experiment: biochemical
Experimental: as §1, §2, §3

[11] = target: T6, PDE6AB (Homo sapiens, UniProt P16499+P35913); experiment: PDE6AB radiometric enzyme inhibition assay; assay type: biochemical; settings: measured at 1 µM
T6 construct: purchased SB Drug Discovery (Scotland, U.K.); host or cells: baculoviral system
T6 sequence (P16499 whole entry): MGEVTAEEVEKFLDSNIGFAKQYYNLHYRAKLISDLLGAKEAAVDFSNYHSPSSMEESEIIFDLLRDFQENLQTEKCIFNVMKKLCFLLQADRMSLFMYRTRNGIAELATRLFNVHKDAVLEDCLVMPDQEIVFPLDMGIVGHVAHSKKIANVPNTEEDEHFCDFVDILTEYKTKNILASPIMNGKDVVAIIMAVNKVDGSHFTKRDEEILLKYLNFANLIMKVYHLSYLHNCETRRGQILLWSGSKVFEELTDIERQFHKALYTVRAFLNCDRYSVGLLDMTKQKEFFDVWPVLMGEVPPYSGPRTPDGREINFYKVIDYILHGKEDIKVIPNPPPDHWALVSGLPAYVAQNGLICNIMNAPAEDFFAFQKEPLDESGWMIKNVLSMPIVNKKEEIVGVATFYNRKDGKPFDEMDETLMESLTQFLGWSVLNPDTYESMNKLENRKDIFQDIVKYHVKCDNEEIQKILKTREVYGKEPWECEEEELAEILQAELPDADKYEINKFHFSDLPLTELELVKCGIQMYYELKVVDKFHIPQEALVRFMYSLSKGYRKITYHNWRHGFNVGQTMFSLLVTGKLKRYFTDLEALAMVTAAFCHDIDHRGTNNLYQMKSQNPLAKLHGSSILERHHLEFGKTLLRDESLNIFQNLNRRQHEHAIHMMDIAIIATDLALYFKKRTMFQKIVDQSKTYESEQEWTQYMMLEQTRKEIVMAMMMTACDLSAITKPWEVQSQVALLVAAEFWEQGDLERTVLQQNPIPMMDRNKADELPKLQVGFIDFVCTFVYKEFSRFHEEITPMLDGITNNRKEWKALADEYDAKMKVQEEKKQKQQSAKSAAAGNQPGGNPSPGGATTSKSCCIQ
T6 sequence (P35913 whole entry): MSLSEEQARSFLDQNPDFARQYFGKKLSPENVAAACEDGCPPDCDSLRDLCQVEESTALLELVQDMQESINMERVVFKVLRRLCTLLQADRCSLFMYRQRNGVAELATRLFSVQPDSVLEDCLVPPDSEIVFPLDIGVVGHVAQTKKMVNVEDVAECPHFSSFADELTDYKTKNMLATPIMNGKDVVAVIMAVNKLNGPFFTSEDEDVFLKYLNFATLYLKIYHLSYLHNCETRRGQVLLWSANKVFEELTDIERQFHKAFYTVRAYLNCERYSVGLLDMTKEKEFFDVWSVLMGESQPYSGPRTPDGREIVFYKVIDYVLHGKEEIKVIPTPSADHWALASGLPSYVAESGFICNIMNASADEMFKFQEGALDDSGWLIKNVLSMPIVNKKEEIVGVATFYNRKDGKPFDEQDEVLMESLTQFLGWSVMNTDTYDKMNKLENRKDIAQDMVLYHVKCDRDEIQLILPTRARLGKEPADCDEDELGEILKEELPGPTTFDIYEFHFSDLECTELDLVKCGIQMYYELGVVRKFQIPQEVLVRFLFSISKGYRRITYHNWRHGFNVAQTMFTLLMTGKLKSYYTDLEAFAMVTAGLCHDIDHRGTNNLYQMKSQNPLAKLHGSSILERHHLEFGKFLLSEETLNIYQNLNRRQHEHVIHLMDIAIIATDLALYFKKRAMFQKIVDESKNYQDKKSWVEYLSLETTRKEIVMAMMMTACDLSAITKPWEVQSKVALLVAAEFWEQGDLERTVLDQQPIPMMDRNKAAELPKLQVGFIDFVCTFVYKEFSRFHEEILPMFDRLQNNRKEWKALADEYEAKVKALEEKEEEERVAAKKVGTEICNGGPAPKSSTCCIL

[12] = target: T7, PDE8A1 (Homo sapiens, UniProt O60658); experiment: PDE8A1 radiometric enzyme inhibition assay; assay type: biochemical; settings: measured at 1 µM
T7 construct: purchased SB Drug Discovery (Scotland, U.K.); host or cells: baculoviral system

[13] = target: T8, PDE11A (Homo sapiens, UniProt Q9HCR9); experiment: PDE11A radiometric enzyme inhibition assay; assay type: biochemical; settings: measured at 1 µM
T8 construct: purchased SB Drug Discovery (Scotland, U.K.); host or cells: baculoviral system

[14] = target: T9, PDE3A (Homo sapiens, UniProt Q14432); experiment: PDE3A radiometric enzyme inhibition assay; assay type: biochemical; settings: measured at 1 µM
T9 construct: purchased SB Drug Discovery (Scotland, U.K.); host or cells: baculoviral system

[15] = target: T10, PDE7A (Homo sapiens, UniProt Q13946); experiment: PDE7A radiometric enzyme inhibition assay; assay type: biochemical; settings: measured at 1 µM
T10 construct: purchased SB Drug Discovery (Scotland, U.K.); host or cells: baculoviral system

[16] = target: T11, PDE1A3 (Homo sapiens, UniProt P54750); experiment: PDE1A3 radiometric enzyme inhibition assay; assay type: biochemical; settings: measured at 1 µM
T11 construct: purchased SB Drug Discovery (Scotland, U.K.); host or cells: baculoviral system

Structure (SMILES) | inhibition at 1 µM [1] [%] | inhibition at 1 µM [2] [%] | inhibition at 1 µM [3] [%] | IC50 [4] [nM] | IC50 [5] [nM] | Inhibition of PDE Sub-Types (%) 10A1 [6] [%] | Inhibition of PDE Sub-Types (%) 2A3 [7] | further results
CCCCOc1ccc(F)c(-c2nc(C)c3nnc4ccc(OC)nc4n23)c1 [TA1, reference compound] | < 0 | 24.9 | 3.08 | – | – | – | – | –
CCCCOc1ccc(F)c(-c2nc(C)c3nnc4ccc(OCCF)nc4n23)c1 [TA5] | – | – | – | > 1000 | – | – | – | –
COc1cc(Br)cc2c1nc(C)c1c(C)nc(-c3ccc(F)nc3)n12 [AQ28A] | – | – | – | 2.95 | > 1000 | – | – | –
COc1ccc(Cl)c(-c2nc(C)c3nnc4ccc(-c5cccnc5F)cc4n23)c1 [BIT5, 1-(2-Chloro-5-methoxyphenyl)-8-(2-fluoropyridin-3-yl)-3 methylbenzo[e]imidazo[5,1-c][1,2,4]triazine] | < 0 | < 0 | < 0 | – | – | 22.1 | NI (NI: No Inhibition) | Selectivity over PDE10A compared to BIT7 [6]: four
C[C@]12CC[C@H]3[C@@H](CCC4=CC(=O)CC[C@@]43C)[C@@H]1CC[C@@H]2O [testosterone, reference compound] | – | – | – | – | – | – | – | Conversion of positive control substrate ([8]; MLM with NADPH, confirmed by HPLC): complete conversion
COc1ccc2nnc3c(C)nc(-c4cc(OCCCCF)ccc4F)n3c2n1 [TA4] | – | – | – | 913 | 7.3 | – | – | Selectivity for PDE2A over PDE10A [5]: 125 fold
COc1ccc(F)c(-c2nc(C)c3nnc4ccc(-c5cccnc5)cc4n23)c1 [BIT8, 1-(2-Fluoro-5-methoxyphenyl)-3-methyl-8-(pyridin-3-yl)benzo[e]imidazo[5,1-c][1,2,4]triazine] | < 0 | 13.9 | 36.2 | – | – | 55.5 | NI (NI: No Inhibition) | –
COc1ccc(Cc2nn3c([C@H](CCCc4ccccc4)[C@H](C)O)nc(C)c3c(=O)[nH]2)cc1OC [BAY 60-7550] | – | – | – | – | 4.7 | – | – | –
COc1ccc2nnc3c(C)nc(-c4cc(OCCCF)ccc4F)n3c2n1 [TA3] | – | – | – | 318 | 11.4 | – | – | Selectivity for PDE2A over PDE10A [5]: 28 fold
COc1ccc(F)c(-c2nc(C)c3nnc4ccc(-c5ccncc5)cc4n23)c1 [BIT9, 1-(2-Fluoro-5-methoxyphenyl)-3-methyl-8-(pyridin-4-yl)benzo[e]imidazo[5,1-c][1,2,4]triazine] | 17.5 | 86.8 | 57.7 | – | – | 96.6 | 80.5% | IC50 [9]: 17.7 nM; IC50 [10]: 20.2 nM; Selectivity Ratio (PDE10A/PDE2A) [7]: 1.1
Cc1nc(-c2cc(OCC3(C)COC3)ccc2Cl)n2c1nnc1ccc(-c3ccc(F)nc3)cc12 [BIT2, 1-(2-Chloro-5-((3-methyloxetan-3-yl)methoxy)phenyl)-8-(6-fluoropyridin-3-yl)-3-methylbenzo[e]imidazo[5,1-c][1,2,4]triazine] | < 0 | 64.1 | < 0 | – | – | 2.46 | 8.52% | –
Cc1nc(-c2cc(OCC3(C)COC3)ccc2Cl)n2c1nnc1ccc(-c3ccnc(F)c3)cc12 [BIT3, 1-(2-Chloro-5-((3-methyloxetan-3-yl)methoxy)phenyl)-8-(2-fluoropyridin-4-yl)-3-methylbenzo[e]imidazo[5,1-c][1,2,4]triazine] | < 0 | 72.7 | < 0 | – | – | 28.2 | 13.2% | –
COc1ccc(Cl)c(-c2nc(C)c3nnc4ccc(-c5ccnc(F)c5)cc4n23)c1 [BIT1, 1-(2-Chloro-5-methoxyphenyl)-8-(2-fluoropyridin-4-yl)-3methylbenzo[e]imidazo[5,1-c][1,2,4]triazine] | < 0 | 58.6 | 29.3 | – | – | – | – | inhibition at 1 µM [11]: 16.8%; inhibition at 1 µM [12]: 23.3%; inhibition at 1 µM [13]: 14.5%; inhibition at 1 µM [14]: 20%; inhibition at 1 µM [15]: 16.4%; inhibition at 1 µM [16]: 12.6%; Metabolic stability in vitro ([8]; MLM 1 mg/mL, NADPH 2 mM, 20 µM compound, 37 °C, 90 min): unchanged BIT1 could still be detected in high amounts; also recorded: considerable metabolic stability; also recorded: sufficiently stable
COc1ccc(Cl)c(-c2nc(C)c3nnc4c(OC)cc(F)cc4n23)c1 [II] | – | – | – | 2.45 | 108 | – | – | –
COc1ccc(Cl)c(-c2nc(C)c3nnc4ccc(-c5cncc(F)c5)cc4n23)c1 [BIT7, 1-(2-Chloro-5-methoxyphenyl)-8-(3-fluoropyridin-5-yl)-3 methylbenzo[e]imidazo[5,1-c][1,2,4]triazine] | 11.5 | 65.7 | 25.1 | – | – | 87.0 | – | –
COc1ccc(F)c(-c2nc(C)c3nnc4ccc(-c5ccnc(F)c5)cc4n23)c1 [BIT6, 1-(2-Fluoro-5-methoxyphenyl)-8-(2-fluoropyridin-4-yl)-3-methylbenzo[e]imidazo[5,1-c][1,2,4]triazine] | 28.4 | 54.2 | 13.6 | – | – | 74.0 | – | IC50 [9]: 65.1 nM; IC50 [10]: 168 nM; Inhibition of PDE Sub-Types (%) 2A3 ([7]; 0.01 µM): 56% and 56.6%; Selectivity Ratio (PDE10A/PDE2A) [7]: 2.5
COc1ccc(Cl)c(-c2nc(C)c3nnc4ccc(F)cc4n23)c1 [III] | – | – | – | 183 | 20.1 | – | – | –
COc1ccc(Cl)c(-c2nc(C)c3nnc4ccc(-c5ccc(F)nc5)cc4n23)c1 [BIT4, 1-(2-Chloro-5-methoxyphenyl)-8-(6-fluoropyridin-3-yl)-3 methylbenzo[e]imidazo[5,1-c][1,2,4]triazine] | < 0 | < 0 | < 0 | – | – | 10.8 | 2.63% | Selectivity over PDE10A compared to BIT7 [6]: eight
